Assay results taken from patent US9943528B2 (MAPREG, priority 2016, dated 2018).

How the values were obtained:
Noradrenergic α2 = assay: CNS receptor binding assay, α2; conditions: MAP4343 10 μM; [3H] RX 821002; rat cerebral cortex
Text: (§1) MAP4343 has been screened for in vitro affinity to 80 different CNS neurotransmitters receptors using various validated binding assays.

[1] = test system: 80 different CNS neurotransmitters receptors; assay: Screen for in vitro affinity to 80 different CNS neurotransmitters receptors; conditions: 80 CNS neurotransmitters receptors, validated binding assays
Text: as §1

Wistar Kyoto (WKY) rats [2] = assay: Elevated-plus maze (EPM) in WKY rats, acute treatment; format: in vivo, rat; conditions: MAP4343 10 mg/kg s.c., fluoxetine 10 mg/kg, ketamine 30 mg/kg i.p., FIG. 5D
Experimental: After a 6-day period of acclimatization, all experimental groups received daily successive subcutaneous (250 μl per rat) and intraperitoneal (1 ml/kg) injections. WI rats received injection of vehicle (sesame oil+saline) while WKY rats were randomly assigned to […] experimental groups, as follow: KWY rats receiving only vehicle (sesame oil+saline) and WKY rats treated with MAP4343 (10 mg/kg, s.c.; rats received in parallel i.p. injections of saline), fluoxetine (10 mg/kg i.p., rats received in parallel s.c. injections of sesame oil) or ketamine (30 mg/kg, i.p.; rats received in parallel s.c. injections of sesame oil) (see FIG. 3).
(§2) After, a 6-day period of acclimatization, the acute phase of treatment started for 4 days during behavioral tests were performed (FIG. 3). All animals were injected 1 h 30 before the starting of behavioral test.
We used the elevated-plus maze (EPM) as an assay of anxiety-related behavior in rodents (Walf and Frye, 2007). […] The time spent in the open versus closed arms was blindly measured by two independent experimenters from the recorded video, and the open arm-index was calculated as follow: time in the open arms (sec)/[time in open arms (sec)+time in closed arms (sec)].

Wistar (WI) rats = assay: Forced swimming test (FST) in WI rats, dose-ranging; format: in vivo, rat; conditions: FIG. 6A
Experimental: as §2
Rats were submitted to the forced swimming test (FST), according the procedure initially described by (Detke et al., 1995) and slightly modified by (Bianchi et al., 2002). Briefly, rats were individually placed into a Plexiglas cylinder (40 cm height, 20 cm diameter) containing 25 cm of water at 25±1° C., under 50 lux illumination. After a pre-test session of 15 min, rats were removed, dried and returned to its housed cage. Twenty-four hours after the pre-test session, rats were still placed in the swim cylinder (under identical conditions) for the 5-min test session. The pre-test and test sessions were recorded using a video camera placed above the cylinder for subsequent behavioral analysis. The immobility time (in sec) was blindly measured by two independent experimenters from recorded videos. Rats were considered as immobile when none activity was observed other than that required to keep the rat's head above the water.

Wistar Kyoto (WKY) rats [3] = assay: Novel object recognition (NOR) test in WKY rats, chronic administration; format: in vivo, rat; conditions: MAP4343 15 mg/kg, s.c., 24 days
Experimental: Wistar Kyoto (WKY) rats are considered as a model of treatment-resistant depression, while Wistar (WI) rats are used as control strain of WKY rats. During this experiment both WI and WKY rats were administered with MAP4343 (15 mg/Kg), subcutaneously (s.c.) for 24 days. Behavioral tests were performed at during the last week of treatment, and rats were finally sacrificed for addressing neurogenesis in Gyrus dentate of hippocampus using histological experiments. Organization of this protocol is depicted in FIG. 7.
MAP4343 was diluted in sesame oil, and then administered subcutaneously (s.c.) at the dose of 15 mg/kg during 24 days. The vehicle group received only the sesame oil (1 ml/kg) in the similar conditions.
The NOR task is a test of recognition memory based on the spontaneous preference of rats for novelty. The applied procedure was based on that previously described by Ennaceur and Delacour (1988). NOR task was performed at D21 of the treatment period (see FIG. 7). In a first session (habituation, 5 min), each rat was familiarized with two identical objects placed in the border of the open-field area (70×100×70 cm). In a second session performed 1 h after (novel object recognition, 5 min), one of the two familiar objects was replaced by a novel object. […] Results are given as exploratory time for the novel object and the total exploratory time.

[4] = test system: purified tubulin and MAP2; assay: Activity: increase in optical density at 345 nm of purified tubulin and MAP2 with GTP; format: biochemical; conditions: 37° C.
Experimental: Activity is measured by the increase in optical density at 345 nm of a mixture of purified tubulin and MAP2, incubated at 37° C. in the presence of GTP.

[5] = test system: tree shrews exposed to chronic psychosocial stress; conditions: 4-week daily administration; cited from earlier work

CO[C@H]1CC[C@@]2(C)C(=CC[C@H]3[C@@H]4CC[C@H](C(C)=O)[C@@]4(C)CC[C@@H]32)C1 [MAP4343, 3β-methoxy-pregna-5-ene-20-one]
% Inhibition of control specific binding (Noradrenergic α2): 7%
in vitro affinity for the tested receptors [1]: no significant affinity for any tested receptor
open-arm (OA) index in EPM, change vs WKY receiving vehicle alone (Wistar Kyoto (WKY) rats [2]): 165%
immobility time in FST, change vs WI receiving vehicle alone (Wistar (WI) rats; MAP4343 10 mg/kg): −27%
immobility time in FST, change vs WI receiving vehicle alone (Wistar (WI) rats; MAP4343 15 mg/kg): −31%
immobility time in FST, dose-ranging effect (Wistar (WI) rats; MAP4343 1, 5, 10 and 15 mg/kg): dose-dependent reduction of immobility time
time spent with the novel object in NOR, change vs WKY receiving only vehicle (Wistar Kyoto (WKY) rats [3]; FIG. 8B): +58%
total exploratory time in NOR, change vs WKY receiving only vehicle (Wistar Kyoto (WKY) rats [3]; FIG. 8C): +41%
Activity [4]: 100% of PREG
hormone hypersecretion, hypothermia and sleep disturbances [5]: prevent hormone hypersecretion, hypothermia and sleep disturbances
stress-triggered avoidance behavior [5]: abolish stress-triggered avoidance behavior
